Measurements: ChEMBL document CHEMBL4257449, “New N-(2-phenyl-4-oxo-1,3-thiazolidin-3-yl)-1,2-benzothiazole-3-carboxamides and acetamides as antimicrobial agents” (2017)
Values after ≈ are worked out from the molar mass of the structure shown.

Key:
Talaromyces funiculosus [1] = assay: Antifungal activity against Penicillium funiculosum ATCC 36839 after 72 hrs by serial dilution method; assay type: functional; conditions: ATCC 36839, 72 h
Aspergillus ochraceus [2] = assay: Fungicidal activity against Aspergillus ochraceus ATCC 12066 incubated for 72 hrs followed by serial sub-cultivation for 72 hrs and measured after 72 hrs by serial dilution method; assay type: functional
Staphylococcus aureus [3] = assay: Antibacterial activity against Staphylococcus aureus ATCC 6538 after 24 hrs by microdilution method; assay type: functional; conditions: ATCC 6538, 24 h
Escherichia coli [4] = assay: Antibacterial activity against Escherichia coli ATCC 35210 after 24 hrs by microdilution method; assay type: functional; conditions: ATCC 35210, 24 h
Salmonella typhimurium [5] = assay: Antibacterial activity against Salmonella typhimurium ATCC 13311 after 24 hrs by microdilution method; assay type: functional, Salmonella enterica subsp. enterica serovar Typhimurium; conditions: Salmonella enterica, ATCC 13311, 24 h
Bacillus cereus [6] = assay: Bactericidal activity against Bacillus cereus incubated for 24 hrs followed by serial sub-cultivation and measured after 24 hrs by microdilution method; assay type: functional
Aspergillus fumigatus [7] = assay: Antifungal activity against Aspergillus fumigatus after 72 hrs by serial dilution method; assay type: functional
Aspergillus ochraceus [8] = assay: Antifungal activity against Aspergillus ochraceus ATCC 12066 after 72 hrs by serial dilution method; assay type: functional; conditions: ATCC 12066, 72 h
Salmonella typhimurium [9] = assay: Bactericidal activity against Salmonella typhimurium ATCC 13311 incubated for 24 hrs followed by serial sub-cultivation and measured after 24 hrs by microdilution method; assay type: functional, Salmonella enterica subsp. enterica serovar Typhimurium
Micrococcus flavus [10] = assay: Antibacterial activity against Micrococcus flavus ATCC 10240 after 24 hrs by microdilution method; assay type: functional; conditions: ATCC 10240, 24 h
Talaromyces funiculosus [11] = assay: Fungicidal activity against Penicillium funiculosum ATCC 36839 incubated for 72 hrs followed by serial sub-cultivation for 72 hrs and measured after 72 hrs by serial dilution method; assay type: functional
Candida albicans [12] = assay: Fungicidal activity against Candida albicans incubated for 72 hrs followed by serial sub-cultivation for 72 hrs and measured after 72 hrs by serial dilution method; assay type: functional
Penicillium ochrochloron [13] = assay: Fungicidal activity against Penicillium ochrochloron ATCC 9112 incubated for 72 hrs followed by serial sub-cultivation for 72 hrs and measured after 72 hrs by serial dilution method; assay type: functional
Escherichia coli [14] = assay: Bactericidal activity against Escherichia coli ATCC 35210 incubated for 24 hrs followed by serial sub-cultivation and measured after 24 hrs by microdilution method; assay type: functional
Bacillus cereus [15] = assay: Antibacterial activity against Bacillus cereus after 24 hrs by microdilution method; assay type: functional
Pseudomonas aeruginosa [16] = assay: Bactericidal activity against Pseudomonas aeruginosa ATCC 27853 incubated for 24 hrs followed by serial sub-cultivation and measured after 24 hrs by microdilution method; assay type: functional
Listeria monocytogenes [17] = assay: Bactericidal activity against Listeria monocytogenes NCTC 7973 incubated for 24 hrs followed by serial sub-cultivation and measured after 24 hrs by microdilution method; assay type: functional
Trichoderma viride [18] = assay: Fungicidal activity against Trichoderma viride IAM 5061 incubated for 72 hrs followed by serial sub-cultivation for 72 hrs and measured after 72 hrs by serial dilution method; assay type: functional
Aspergillus fumigatus [19] = assay: Fungicidal activity against Aspergillus fumigatus incubated for 72 hrs followed by serial sub-cultivation for 72 hrs and measured after 72 hrs by serial dilution method; assay type: functional
Trichoderma viride [20] = assay: Antifungal activity against Trichoderma viride IAM 5061 after 72 hrs by serial dilution method; assay type: functional; conditions: IAM 5061, 72 h
Candida albicans [21] = assay: Antifungal activity against Candida albicans after 72 hrs by serial dilution method; assay type: functional
Micrococcus flavus [22] = assay: Bactericidal activity against Micrococcus flavus ATCC 10240 incubated for 24 hrs followed by serial sub-cultivation and measured after 24 hrs by microdilution method; assay type: functional
Listeria monocytogenes [23] = assay: Antibacterial activity against Listeria monocytogenes NCTC 7973 after 24 hrs by microdilution method; assay type: functional; conditions: NCTC 7973, 24 h
Aspergillus versicolor [24] = assay: Antifungal activity against Aspergillus versicolor ATCC 11730 after 72 hrs by serial dilution method; assay type: functional; conditions: ATCC 11730, 72 h
Aspergillus niger [25] = assay: Fungicidal activity against Aspergillus niger ATCC 6275 incubated for 72 hrs followed by serial sub-cultivation for 72 hrs and measured after 72 hrs by serial dilution method; assay type: functional
Aspergillus niger [26] = assay: Antifungal activity against Aspergillus niger ATCC 6275 after 72 hrs by serial dilution method; assay type: functional; conditions: ATCC 6275, 72 h
Staphylococcus aureus [27] = assay: Bactericidal activity against Staphylococcus aureus ATCC 6538 incubated for 24 hrs followed by serial sub-cultivation and measured after 24 hrs by microdilution method; assay type: functional
Enterobacter cloacae [28] = assay: Bactericidal activity against Enterobacter cloacae incubated for 24 hrs followed by serial sub-cultivation and measured after 24 hrs by microdilution method; assay type: functional
Aspergillus versicolor [29] = assay: Fungicidal activity against Aspergillus versicolor ATCC 11730 incubated for 72 hrs followed by serial sub-cultivation for 72 hrs and measured after 72 hrs by serial dilution method; assay type: functional
Penicillium ochrochloron [30] = assay: Antifungal activity against Penicillium ochrochloron ATCC 9112 after 72 hrs by serial dilution method; assay type: functional; conditions: ATCC 9112, 72 h
Enterobacter cloacae [31] = assay: Antibacterial activity against Enterobacter cloacae after 24 hrs by microdilution method; assay type: functional
Pseudomonas aeruginosa [32] = assay: Antibacterial activity against Pseudomonas aeruginosa ATCC 27853 after 24 hrs by microdilution method; assay type: functional; conditions: ATCC 27853, 24 h

SMILES | MIC (Talaromyces funiculosus [1]) [µM] | MFC99.5 (Aspergillus ochraceus [2]) [×10⁻² umol/ml] | MIC (Staphylococcus aureus [3]) [µM] | MIC (Escherichia coli [4]) [µM] | MIC (Salmonella typhimurium [5]) [µM] | MBC99.5 (Bacillus cereus [6]) [×10⁻² umol/ml] | MIC (Aspergillus fumigatus [7]) [µM] | MIC (Aspergillus ochraceus [8]) [µM] | MBC99.5 (Salmonella typhimurium [9]) [×10⁻² umol/ml] | MIC (Micrococcus flavus [10]) [µM] | MFC99.5 (Talaromyces funiculosus [11]) [×10⁻² umol/ml] | MFC99.5 (Candida albicans [12]) [×10⁻² umol/ml] | MFC99.5 (Penicillium ochrochloron [13]) [×10⁻² umol/ml] | MBC99.5 (Escherichia coli [14]) [×10⁻² umol/ml] | MIC (Bacillus cereus [15]) [µM] | MBC99.5 (Pseudomonas aeruginosa [16]) [×10⁻² umol/ml] | MBC99.5 (Listeria monocytogenes [17]) [×10⁻² umol/ml] | MFC99.5 (Trichoderma viride [18]) [×10⁻² umol/ml] | MFC99.5 (Aspergillus fumigatus [19]) [×10⁻² umol/ml] | MIC (Trichoderma viride [20]) [µM] | further results
O=C(NN1C(=O)CSC1c1ccccc1Cl)c1nsc2ccccc12 (stereo not drawn) | 205 (≈ 79.9 µg/mL) | 20.5 | 102 (≈ 39.8 µg/mL) | 282 (≈ 110 µg/mL) | 205 (≈ 79.9 µg/mL) | 38.4 | 102 (≈ 40 µg/mL) | 102 (≈ 39.8 µg/mL) | 38.4 | 384 (≈ 150 µg/mL) | 38.4 | 76.8 | 76.8 | 38.4 | 154 (≈ 60 µg/mL) | 38.4 | 76.8 | 20.5 | 20.5 | 102 (≈ 39.8 µg/mL) | MIC (Candida albicans [21]): 384 µM (≈ 150 µg/mL); MBC99.5 (Micrococcus flavus [22]): 76.8 ×10⁻² umol/ml; MIC (Listeria monocytogenes [23]): 589 µM (≈ 230 µg/mL); MIC (Aspergillus versicolor [24]): 25.6 µM (≈ 9.98 µg/mL); MFC99.5 (Aspergillus niger [25]): 20.5 ×10⁻² umol/ml; MIC (Aspergillus niger [26]): 102 µM (≈ 39.8 µg/mL); MBC99.5 (Staphylococcus aureus [27]): 38.4 ×10⁻² umol/ml; MBC99.5 (Enterobacter cloacae [28]): 38.4 ×10⁻² umol/ml; MFC99.5 (Aspergillus versicolor [29]): 5.1 ×10⁻² umol/ml; MIC (Penicillium ochrochloron [30]): 384 µM (≈ 150 µg/mL); MIC (Enterobacter cloacae [31]): 205 µM (≈ 79.9 µg/mL); MIC (Pseudomonas aeruginosa [32]): 282 µM (≈ 110 µg/mL)
O=C(NN1C(=O)CSC1c1cccc(Cl)c1)c1nsc2ccccc12 (stereo not drawn) | 102 (≈ 39.8 µg/mL) | 20.5 | 102 (≈ 39.8 µg/mL) | 102 (≈ 39.8 µg/mL) | 205 (≈ 79.9 µg/mL) | 38.4 | 384 (≈ 150 µg/mL) | 102 (≈ 39.8 µg/mL) | 38.4 | 205 (≈ 79.9 µg/mL) | 20.5 | 20.5 | 38.4 | 20.5 | 102 (≈ 39.8 µg/mL) | 38.4 | 3.84 | 10.2 | 76.8 | 51 (≈ 19.9 µg/mL) | MIC (Candida albicans [21]): 102 µM (≈ 39.8 µg/mL); MBC99.5 (Micrococcus flavus [22]): 38.4 ×10⁻² umol/ml; MIC (Listeria monocytogenes [23]): 20.5 µM (≈ 7.99 µg/mL); MIC (Aspergillus versicolor [24]): 51 µM (≈ 19.9 µg/mL); MFC99.5 (Aspergillus niger [25]): 10.2 ×10⁻² umol/ml; MIC (Aspergillus niger [26]): 77 µM (≈ 30 µg/mL); MBC99.5 (Staphylococcus aureus [27]): 20.5 ×10⁻² umol/ml; MBC99.5 (Enterobacter cloacae [28]): 38.4 ×10⁻² umol/ml; MFC99.5 (Aspergillus versicolor [29]): 10.2 ×10⁻² umol/ml; MIC (Penicillium ochrochloron [30]): 208 µM (≈ 81.1 µg/mL); MIC (Enterobacter cloacae [31]): 205 µM (≈ 79.9 µg/mL); MIC (Pseudomonas aeruginosa [32]): 205 µM (≈ 79.9 µg/mL)
O=C(NN1C(=O)CSC1c1cccc(F)c1)c1nsc2ccccc12 (stereo not drawn) | 107 (≈ 40 µg/mL) | 40.2 | 107 (≈ 40 µg/mL) | 160 (≈ 59.7 µg/mL) | 214 (≈ 79.9 µg/mL) | 40.2 | 54 (≈ 20.2 µg/mL) | 292 (≈ 109 µg/mL) | 40.2 | 214 (≈ 79.9 µg/mL) | 21.4 | 21.4 | 21.4 | 21.4 | 107 (≈ 40 µg/mL) | 80.4 | 40.2 | 10.7 | 10.7 | 54 (≈ 20.2 µg/mL) | MIC (Candida albicans [21]): 107 µM (≈ 40 µg/mL); MBC99.5 (Micrococcus flavus [22]): 40.2 ×10⁻² umol/ml; MIC (Listeria monocytogenes [23]): 214 µM (≈ 79.9 µg/mL); MIC (Aspergillus versicolor [24]): 54 µM (≈ 20.2 µg/mL); MFC99.5 (Aspergillus niger [25]): 21.4 ×10⁻² umol/ml; MIC (Aspergillus niger [26]): 107 µM (≈ 40 µg/mL); MBC99.5 (Staphylococcus aureus [27]): 21.4 ×10⁻² umol/ml; MBC99.5 (Enterobacter cloacae [28]): 21.4 ×10⁻² umol/ml; MFC99.5 (Aspergillus versicolor [29]): 10.7 ×10⁻² umol/ml; MIC (Penicillium ochrochloron [30]): 107 µM (≈ 40 µg/mL); MIC (Enterobacter cloacae [31]): 214 µM (≈ 79.9 µg/mL); MIC (Pseudomonas aeruginosa [32]): 214 µM (≈ 79.9 µg/mL)
O=C(NN1C(=O)CSC1c1ccc(F)cc1)c1nsc2ccccc12 (stereo not drawn) | 214 (≈ 79.9 µg/mL) | 80.4 | 107 (≈ 40 µg/mL) | 107 (≈ 40 µg/mL) | 107 (≈ 40 µg/mL) | 40.2 | 107 (≈ 40 µg/mL) | 402 (≈ 150 µg/mL) | 21.4 | 214 (≈ 79.9 µg/mL) | 53.6 | 10.7 | 80.4 | 21.4 | 214 (≈ 79.9 µg/mL) | 21.4 | 40.2 | 80.4 | 21.4 | 402 (≈ 150 µg/mL) | MIC (Candida albicans [21]): 80 µM (≈ 29.9 µg/mL); MBC99.5 (Micrococcus flavus [22]): 40.2 ×10⁻² umol/ml; MIC (Listeria monocytogenes [23]): 214 µM (≈ 79.9 µg/mL); MIC (Aspergillus versicolor [24]): 402 µM (≈ 150 µg/mL); MFC99.5 (Aspergillus niger [25]): 80.4 ×10⁻² umol/ml; MIC (Aspergillus niger [26]): 402 µM (≈ 150 µg/mL); MBC99.5 (Staphylococcus aureus [27]): 21.4 ×10⁻² umol/ml; MBC99.5 (Enterobacter cloacae [28]): 21.4 ×10⁻² umol/ml; MFC99.5 (Aspergillus versicolor [29]): 80.4 ×10⁻² umol/ml; MIC (Penicillium ochrochloron [30]): 402 µM (≈ 150 µg/mL); MIC (Enterobacter cloacae [31]): 107 µM (≈ 40 µg/mL); MIC (Pseudomonas aeruginosa [32]): 107 µM (≈ 40 µg/mL)
